According to patent US20220033363A1, “HERBICIDALLY ACTIVE SUBSTITUTED PHENYLPYRIMIDINE HYDRAZIDES” (Bayer Aktiengesellschaft, priority 2018, published 2022):

Experiments:
Type in all cases: in vivo
Matricaria inodora [1] = test: Herbicidal pre-emergence action (Method B) against MATIN; details: Tripleurospermum inodorum, 504 h, scored visually after about 3 weeks vs untreated controls
From the text: (§1) Method B: Herbicidal Pre-Emergence Action Seeds of mono- and dicotyledonous weed plants are placed in plastic pots in sandy loam soil (doubly sown with one species each of mono- or dicotyledonous weed plants per pot) and covered with soil. The compounds of the invention, formulated in the form of wettable powders (WP) or as emulsion concentrates (EC), are then applied onto the surface of the covering soil as aqueous suspension or emulsion with addition of 0.5% additive at a water application rate equivalent to 600 liters per hectare. After the treatment, the pots are placed in a greenhouse and kept under good growth conditions for the trial plants. After about 3 weeks, the effect of the preparations is scored visually in comparison with untreated controls as percentages. For example, 100% action=the plants have died, 0% action=like control plants.

Echinochloa crus-galli [2] = test: Herbicidal post-emergence action (Method A) against ECHCG; details: rated visually after about 3 weeks vs untreated controls; for pest or weed control at 1280 g/ha: Echinochloa crus-galli, post-emergence, 504 h
Procedure: (§2) Method A: Herbicidal Post-Emergence Action Seeds of mono- and dicotyledonous weed plants are placed in plastic pots in sandy loam soil (twin sowing with one species each of mono- or dicotyledonous weed plants per pot), covered with soil and cultivated in a greenhouse under controlled growth conditions. 2 to 3 weeks after sowing, the test plants are treated at the one-leaf stage. The compounds of the invention, formulated in the form of wettable powders (WP) or as emulsion concentrates (EC), are applied to the green parts of the plants as aqueous suspension or emulsion with addition of 0.5% additive at a water application rate equivalent to 600 liters per hectare. After the test plants have been kept in the greenhouse under optimum growth conditions for about 3 weeks, the activity of the preparations is rated visually in comparison to untreated controls. For example, 100% activity=the plants have died, 0% activity=like control plants.

harmful plants [3] = test: Herbicidal pre-emergence action (Method B), summary statement; details: summary of tables B1-B12 (Method B)
From the text: as §1

Lolium rigidum [4] = test: Herbicidal post-emergence action (Method A) against LOLRI; details: rated visually after about 3 weeks vs untreated controls; for pest or weed control at 1280 g/ha: Lolium rigidum, post-emergence, 504 h
Procedure: as §2

Stellaria media [5] = test: Herbicidal pre-emergence action (Method B) against STEME; details: 504 h; for pest or weed control at 320 g/ha: dosage 320 g/ha; for pest or weed control at 1280 g/ha: dosage 1280 g/ha
From the text: as §1

Setaria viridis = test: Herbicidal pre-emergence action (Method B) against SETVI; details: 1280 g/ha, scored visually after about 3 weeks vs untreated controls
From the text: as §1

Echinochloa crus-galli [6] = test: Herbicidal pre-emergence action (Method B) against ECHCG; details: 504 h, scored visually after about 3 weeks vs untreated controls
From the text: as §1

Stellaria media [7] = test: Herbicidal post-emergence action (Method A) against STEME; details: 504 h, rated visually after about 3 weeks vs untreated controls
Procedure: as §2

Poa annua [8] = test: Herbicidal pre-emergence action (Method B) against POAAN; details: 504 h, scored visually after about 3 weeks vs untreated controls
From the text: as §1

Poa annua [9] = test: Herbicidal post-emergence action (Method A) against POAAN; details: 504 h, rated visually after about 3 weeks vs untreated controls; for pest or weed control at 320 g/ha: read-out: Post-emergence action at 320 g/ha against POANN; for pest or weed control at 1280 g/ha: read-out: Post-emergence action at 1280 g/ha against POANN
Procedure: as §2

Lolium rigidum [10] = test: Herbicidal pre-emergence action (Method B) against LOLRI; details: 504 h, scored visually after about 3 weeks vs untreated controls
From the text: as §1

Matricaria inodora [11] = test: Herbicidal post-emergence action (Method A) against MATIN; details: 1280 g/ha; rated visually after about 3 weeks vs untreated controls
Procedure: as §2

Abutilon theophrast [12] = test: Herbicidal post-emergence action (Method A) against ABUTH; details: rated visually after about 3 weeks vs untreated controls
Procedure: as §2

harmful plants [13] = test: Herbicidal post-emergence action (Method A), summary statement; details: summary of tables A1-A11
Procedure: as §2

Abutilon theophrast [14] = test: Herbicidal pre-emergence action (Method B) against ABUTH; details: 1280 g/ha, scored visually after about 3 weeks vs untreated controls
From the text: as §1

Amaranthus retroflexus = test: Herbicidal post-emergence action (Method A) against AMARE; details: rated visually after about 3 weeks vs untreated controls
Procedure: as §2

In the case of `NNC(=O)c1nc(C2CC2)ncc1-c1ccccc1Cl` [Example I-497, 5-(2-chlorophenyl)-2-cyclopropylpyrimidine-4-carbohydrazide], the pest or weed control at 320 g/ha (Matricaria inodora [1]; 320 g/ha) was 100%, the pest or weed control at 1280 g/ha (Matricaria inodora [1]) was 100% and the pest or weed control at 1280 g/ha (Echinochloa crus-galli [2]) was 100%. For the same compound, the “herbicidal efficacy against harmful plants in pre-emergence treatment” value (harmful plants [3]) was “good herbicidal efficacy”, the pest or weed control at 1280 g/ha (Lolium rigidum [4]) was 100% and the pest or weed control at 320 g/ha (Stellaria media [5]) was 100%. For the same compound, the pest or weed control at 1280 g/ha (Stellaria media [5]) was 100%, the “Pre-emergence action against SETVI” value (Setaria viridis) was 90% and the pest or weed control at 320 g/ha (Echinochloa crus-galli [6]) was 100%. It also gave a pest or weed control at 1280 g/ha (Echinochloa crus-galli [6]) of 100%, a pest or weed control at 320 g/ha (Stellaria media [7]) of 100% and a pest or weed control at 1280 g/ha (Stellaria media [7]) of 100%. It also gave a pest or weed control at 320 g/ha (Poa annua [8]) of 100%, a pest or weed control at 1280 g/ha (Poa annua [8]) of 100% and a pest or weed control at 320 g/ha (Poa annua [9]) of 100%. It also gave a pest or weed control at 1280 g/ha (Poa annua [9]) of 100%, a pest or weed control at 320 g/ha (Lolium rigidum [10]) of 90% and a pest or weed control at 1280 g/ha (Lolium rigidum [10]) of 100%.
`O=CNNC(=O)c1nc(C2CC2)ncc1-c1ccccc1Cl` [Example I-516, 5-(2-chlorophenyl)-2-cyclopropyl-N′-formylpyrimidine-4-carbohydrazide] was tested, and the pest or weed control at 1280 g/ha (Matricaria inodora [1]) was 100%, the “Post-emergence action at 1280 g/ha against MATIN” value (Matricaria inodora [11]) was 90% and the “Post-emergence action at 320 g/ha against ECHCG” value (Echinochloa crus-galli [2]; 320 g/ha) was 90%. The pest or weed control at 1280 g/ha (Echinochloa crus-galli [2]) was 100%, the “Post-emergence action at 1280 g/ha against ABUTH” value (Abutilon theophrast [12]) was 100% and the pest or weed control at 1280 g/ha (Lolium rigidum [4]) was 90%. The pest or weed control at 320 g/ha (Stellaria media [5]) was 100%, the pest or weed control at 1280 g/ha (Stellaria media [5]) was 100% and the pest or weed control at 1280 g/ha (Echinochloa crus-galli [6]) was 100%. For the same compound, the pest or weed control at 320 g/ha (Stellaria media [7]) was 90%, the pest or weed control at 1280 g/ha (Stellaria media [7]) was 100% and the “herbicidal efficacy against harmful plants in the case of post-emergence treatment” value (harmful plants [13]) was “good herbicidal efficacy”. For the same compound, the pest or weed control at 320 g/ha (Poa annua [8]) was 100%, the pest or weed control at 1280 g/ha (Poa annua [8]) was 100% and the pest or weed control at 320 g/ha (Poa annua [9]) was 100%. For the same compound, the pest or weed control at 1280 g/ha (Poa annua [9]) was 100%, the pest or weed control at 320 g/ha (Lolium rigidum [10]) was 100% and the pest or weed control at 1280 g/ha (Lolium rigidum [10]) was 100%.
With `O=C(NNC(=O)c1nc(C2CC2)ncc1-c1ccccc1Cl)c1ccccn1` [Example I-527, 5-(2-chlorophenyl)-2-cyclopropyl-N′-(pyridin-2-ylcarbonyl)pyrimidine-4-carbohydrazide] the “Post-emergence action at 1280 g/ha against MATIN” value (Matricaria inodora [11]) was 90%, the pest or weed control at 1280 g/ha (Echinochloa crus-galli [2]) was 90% and the “Pre-emergence action against ABUTH” value (Abutilon theophrast [14]) was 90%. The “Post-emergence action at 320 g/ha against LOLRI” value (Lolium rigidum [4]; 320 g/ha) was 100%, the pest or weed control at 1280 g/ha (Lolium rigidum [4]) was 100% and the pest or weed control at 320 g/ha (Stellaria media [5]) was 100%. It also gave a pest or weed control at 1280 g/ha (Stellaria media [5]) of 100%, a pest or weed control at 320 g/ha (Echinochloa crus-galli [6]) of 90% and a pest or weed control at 1280 g/ha (Echinochloa crus-galli [6]) of 100%. The pest or weed control at 320 g/ha (Stellaria media [7]) was 100%, the pest or weed control at 1280 g/ha (Stellaria media [7]) was 100% and the pest or weed control at 320 g/ha (Poa annua [8]) was 100%. The pest or weed control at 1280 g/ha (Poa annua [8]) was 100%, the “Post-emergence action at 1280 g/ha against AMARE” value (Amaranthus retroflexus) was 100% and the pest or weed control at 320 g/ha (Poa annua [9]) was 100%. For the same compound, the pest or weed control at 1280 g/ha (Poa annua [9]) was 100%, the pest or weed control at 320 g/ha (Lolium rigidum [10]) was 90% and the pest or weed control at 1280 g/ha (Lolium rigidum [10]) was 100%.
